Test results reported in patent US10335608B2, “Photodynamic compounds and methods for activating them using ionizing radiation and/or other electromagnetic radiation for therapy and/or diagnostics” (THERALASE TECHNOLOGIES, INC., priority 2016, dated 2019).

Assays:
U87 cells = assay: Presto Blue cell kill after light and/or X-ray PDT, U87 cells; assay type: cell-based, human; details: 20 μM
Protocol: The cells were incubated in complete DMEM media containing antibiotics and 10% FBS (resulting in 2.5 μM bovine Tf in the medium) and all the solutions were prepared in this media. The cells were loaded with TLD1433 or TLDOsH2IP (20-80 μM) for 4 hours at 37° C. Subsequently, a wash with complete medium was performed followed by irradiation with red (625 nm, 90 J cm^−2) or near infrared (808 nm, 600 J cm^−2) light, X-ray (5 Gy, 225 keV), X-ray followed by light or light followed by X-ray. Matched dark controls were used in parallel: incubation at ambient conditions (ambient air, room temperature) for a length of time corresponding to the irradiation session. After irradiation, the cells were returned to the incubator. After 21 hours, the viability of cells was determined by Presto Blue assay, and cell kill was calculated as percent of matched control. Pure PDT effect was calculated in the following way: Pure PDT effect (percent cell kill)=Total PDT percent cell kill−Light alone percent cell kill−Dark percent cell kill.

[1] = In vivo CT imaging of the photosensitizer after tail vein injection; details: rat, 1 mg/kg via tail vein, 5 min to 4 hours post administration
Protocol: For in vivo imaging of the photosensitizer, a rat was injected with 1 mg/kg of OsH2dppn via tail vein and imaged with a small animal CT scanner as a function of time post-systemic administration (5, 10, 30 min, 1, 2, 4 hours).

[2] = near infrared light (808 nm, 600 J cm^−2)

| SMILES | Dark cell kill (%) (U87 cells; no irradiation) | PDT cell kill (%) (U87 cells; Near Infrared & X-ray) | Pure PDT effect (% cell kill, in brackets) (U87 cells; Near Infrared & X-ray) [% cell kill] | Synergy in the pure PDT effect (% cell kill) (U87 cells; Near Infrared & X-ray) | PDT cell kill (%) (U87 cells; X-ray & Near Infrared) | Pure PDT effect (% cell kill, in brackets) (U87 cells; X-ray & Near Infrared) [% cell kill] | Synergy in the pure PDT effect (% cell kill) (U87 cells; X-ray & Near Infrared) | PDT cell kill (%) (U87 cells; X-ray (5 Gy, 225 KeV)) | Pure PDT effect (% cell kill, in brackets) (U87 cells; X-ray (5 Gy, 225 KeV)) [% cell kill] | PDT cell kill (%) (U87 cells; [2]) | Pure PDT effect (% cell kill, in brackets) (U87 cells; [2]) [% cell kill] | Distribution on CT images over time [1] |
| --- | --- | --- | --- | --- | --- | --- | --- | --- | --- | --- | --- | --- |
| [Os+2].c1ccc2nc(-c3ccc4ccccc4n3)ccc2c1.c1ccc2nc(-c3ccc4ccccc4n3)ccc2c1.c1cnc2c(c1)c1nc[nH]c1c1cccnc12 [OsH2IP, [Os(biq)2(LL)] imidazo[4,5-f][1,10]phenanthroline] | 5.1 | 31.5 | 17.0 | −9.3 | 50.0 | 39.6 | 13.4 | 13.8 | 6.8 | 24.6 | 19.5 | – |
| [Os+2].c1ccc2cc3nc4c5cccnc5c5ncccc5c4nc3cc2c1.c1ccc2nc(-c3ccc4ccccc4n3)ccc2c1.c1ccc2nc(-c3ccc4ccccc4n3)ccc2c1 [OsH2dppn, [Os(biq)2(LL)] benzo[i]dipyrido-[3,2-a:2′,3′-c]phenazine] | – | – | – | – | – | – | – | – | – | – | – | presumably accumulating in the bladder over time |
